The values that follow come from US6335347B1, “Ethyl 4-(8-chloro-5,6-dihydro-11 H-benzo[5,6]cyclohepta[1,2-b]pyridin-11-ylidene)-1-piperidene carboxylate polymorph” (Schering Corporation, priority 1997, dated 2002).

This experiment has as its system monkey model. Briefly: Antihistaminic activity in a monkey model.

Molecules are shown by their SMILES.

For the molecule `CCOC(=O)N1CCC(=C2c3ccc(Cl)cc3CCc3cccnc32)CC1` [polymorph form 2 loratadine, ethyl 4-(8-chloro-5,6,-dihydro-11H-benzo[5,6]cyclohepta[1,2-b]pyridin-11-ylidene)-1-piperidene carboxylate], the Antihistaminic activity result was “demonstrated”.
